Entries after “also recorded” stand apart in the source; their conditions may differ.
Biological target: T1, human AR (Homo sapiens, UniProt P10275)
T1 sequence (P10275 1-920): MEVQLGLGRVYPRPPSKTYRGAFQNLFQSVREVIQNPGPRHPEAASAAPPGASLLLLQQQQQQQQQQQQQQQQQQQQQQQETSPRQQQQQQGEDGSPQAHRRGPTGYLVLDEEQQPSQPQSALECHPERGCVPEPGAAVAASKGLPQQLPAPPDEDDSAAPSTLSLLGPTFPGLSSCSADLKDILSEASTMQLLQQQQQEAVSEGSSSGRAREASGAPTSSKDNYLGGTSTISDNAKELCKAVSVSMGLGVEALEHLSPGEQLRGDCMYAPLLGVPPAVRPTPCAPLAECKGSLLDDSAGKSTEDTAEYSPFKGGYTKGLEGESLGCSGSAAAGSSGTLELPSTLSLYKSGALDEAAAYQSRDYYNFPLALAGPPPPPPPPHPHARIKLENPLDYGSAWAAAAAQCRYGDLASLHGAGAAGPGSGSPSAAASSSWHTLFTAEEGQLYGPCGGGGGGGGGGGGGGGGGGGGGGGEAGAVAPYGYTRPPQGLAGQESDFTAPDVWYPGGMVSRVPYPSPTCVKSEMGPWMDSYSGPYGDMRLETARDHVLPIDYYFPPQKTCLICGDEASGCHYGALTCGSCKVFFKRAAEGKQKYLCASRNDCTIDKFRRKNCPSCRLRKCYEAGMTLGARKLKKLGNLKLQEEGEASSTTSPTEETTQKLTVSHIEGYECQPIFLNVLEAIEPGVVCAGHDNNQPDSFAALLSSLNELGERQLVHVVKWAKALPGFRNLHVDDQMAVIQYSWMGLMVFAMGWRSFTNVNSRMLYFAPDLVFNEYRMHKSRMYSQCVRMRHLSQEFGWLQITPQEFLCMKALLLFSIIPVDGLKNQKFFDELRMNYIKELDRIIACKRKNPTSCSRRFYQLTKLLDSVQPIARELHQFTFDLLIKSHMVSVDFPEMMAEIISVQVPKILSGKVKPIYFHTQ
Assay: not given
Conditions: LXXLL motif-bound AF-2 interface of human AR; PLoS Biology 2:e274, 2004; read-out: Kd of LXXLL peptide; cited from earlier work
For “SSRGLLWDLLTKDSR [LXXLL peptide co-crystallised with human AR AF-2]”, the Kd is listed as 1.8 µM.

Test system: PCa cell lines that contain AR
Assay: DHT-induced proliferation of prostate cancer cells (MTT assay)
Type: cell-based
Conditions: DHT-induced proliferation, MTT assay; structure-function series
Experimental: FIGS. 10A-E. D2 blocks proliferation of prostate cancer cells in vitro and in vivo (a) Effect of pretreatment with 100 nM of D1 and D2 on DHT-induced proliferation in multiple prostate cancer cell lines in MTT assay. Numbers are normalized to a baseline of 100, which represents the untreated rate of proliferation. (b) Effect of pretreatment with 100 nM of D1 and D2 on DHT-induced proliferation in LNCaPcells on a Cyquant assay. (c) Dose dependent curve of D2 on proliferation of LAPC4 cells. (d) Rescue of DHT induced proliferation by overexpression of PELP1 following suppression of DHT induced proliferation with 100 nM of D2. (e). Effect of direct intratumoral injections of D1 and D2 on the proliferation of prostate cancer xenografts in animal models: Following establishment of subcutaneous xenografts in animal models, daily direct intratumoral injections of D1 and D2 were performed. Bioluminesence imaging was used to track the growth of the tumors and the effect of D1 and D2 quantitated as shown in the graph.
The importance of PELP1 and AR interaction on DHT-mediated proliferation of prostate cancer cells were confirmed using rescue experiments, where D2 suppression of DHT-mediated proliferation was overcome by overexpression of PELP1 in LNCaP PCa cells.
(§1) In this experiment, cells were plated (2-10×10^3/well) in 96 well plates and subjected to androgen deprivation for 48 hours with phenol-red free RPMI and 1% charcoal stripped fetal bovine serum (CSF). Cells were then treated with either ethanol, EGF or DHT as a positive control for 48 hours. Peptidomimetics were added 2 hours prior to treatment. Cell proliferation was measured using the MTT colorimetric assay.
as §1, with “Cells” for “In this experiment, cells”, “96-well” for “96 well”, “ethanol” for “ethanol, EGF”, “hours” for “hours.”
In the case of CC(C)COc1cc(C(=O)Nc2ccc(C(=O)NCCCCO)cc2OCC(C)C)ccc1NC(=O)CN [D2-26], the “activity on the proliferation of prostate cancer cells (FIGS. 17, 19A-N)” value (from here on “activity on the proliferation”) is reported as “good activity”. In the case of CC(C)COc1cc(C(=O)Nc2ccc(C(N)=O)cc2OCCc2ccc3ccccc3c2)ccc1NC(=O)c1ccc([N+](=O)[O-])c(OCC(C)C)c1 [TK6-R], the “activity on the proliferation” value is reported as “good activity”. In the case of CC(C)COc1cc(C(=O)Nc2ccc(C(N)=O)cc2OCC(C)C)ccc1NC(=O)CCC(=O)O [D2-12], the “activity on the proliferation” value is reported as “good activity”. With COC(=O)c1ccc(NC(=O)c2ccc(NC(=O)CN)c(OCC(C)C)c2)c(OCC(C)C)c1 [D2-4] the “activity on the proliferation” value was “maximal activity; also recorded: good activity”. For C=C(C)COc1cc(C(=O)OC)ccc1NC(=O)c1ccc([N+](=O)[O-])c(OCC(=C)C)c1 [D29], the “activity on the proliferation” value was “good activity”. With COC(=O)c1ccc(NC(=O)c2ccc([N+](=O)[O-])c(NCC(C)C)c2)c(NCC(C)C)c1 [D2-47] the “activity on the proliferation” value was “good activity”. With CC(C)COc1cc(C(=O)Nc2ccc(C(=O)N(C(C)C)C(C)C)cc2OCC(C)C)ccc1NC(=O)CN [D2-23] the “activity on the proliferation” value was “good activity”.

— patent publication US10618869B2, “Oligo-benzamide compounds and their use” (The Board of Regents of the University of Texas System, priority 2010, dated 2020)
